In US11382907B2, “Methods and compositions for treating aging-associated impairments using CCR3-inhibitors” (Alkahest, Inc., priority 2017, dated 2022):
“Also recorded” adds a separate entry of the source. Read-outs that look alike come from different tables or passages of the source.

Legend:
Iba1-positive microglia = assay: IHC of Iba1-positive microglia in hippocampus of mice given daily LPS; format: in vivo, C57Bl/6 mice; conditions: 3-month-old mice, daily LPS IP 7 weeks, 30 mg/kg PO BID 4 weeks
Method: (§1) For fluorescent microscopy, the following antibodies were used in the given concentrations: GFAP, 1:500, DAKO; Iba1, 1:1000, Wako; and BrdU, 1:500, AbCam. Antigen retrieval protocol was required for BrdU (2N HCl, 37 C, 30 min) prior to blocking. The appropriate fluorescent secondary antibodies were applied the next day at a concentration of 1:300 for one hour at room temperature. Prolong Gold Mounting Media was used to coverslip the slides. Images were acquired on a light microscope at 5× magnification.
(§2) Three-month-old C57 mice were given daily doses of lipopolysaccharide (LPS) 0.5 mg/kg IP to induce inflammation and treated with Compound 1 for up to 4 weeks.
(§3) Treatment Groups: • Treatment Group 1, Vehicle treatment: 3-month-old C57 mice (n=10) received daily IP injection of LPS for 7 weeks and twice daily (BID) oral gavage (PO) treatment of vehicle solution for up to 4 weeks. • Treatment Group 2, Vehicle treatment and Oxazolone treatment: 3-month-old C57 mice (n=10) received daily IP injection of LPS for 7 weeks and twice daily (BID) oral gavage (PO) treatment of vehicle solution for up to 4 weeks. • Treatment Group 3, Compound 1 treatment and Oxazolone treatment: 3-month-old C57 mice (n=9) received daily IP injection of LPS for 7 weeks and twice daily (BID) oral gavage (PO) treatment of Compound 1, 30 mg/kg, for up to 4 weeks.

CCR3 receptor = molecular target: T1, CCR3 receptor (Homo sapiens, UniProt P51677); assay: CCR3 receptor internalization biomarker assay (FACS, whole blood); format: cell-based
T1 sequence (P51677 1-355): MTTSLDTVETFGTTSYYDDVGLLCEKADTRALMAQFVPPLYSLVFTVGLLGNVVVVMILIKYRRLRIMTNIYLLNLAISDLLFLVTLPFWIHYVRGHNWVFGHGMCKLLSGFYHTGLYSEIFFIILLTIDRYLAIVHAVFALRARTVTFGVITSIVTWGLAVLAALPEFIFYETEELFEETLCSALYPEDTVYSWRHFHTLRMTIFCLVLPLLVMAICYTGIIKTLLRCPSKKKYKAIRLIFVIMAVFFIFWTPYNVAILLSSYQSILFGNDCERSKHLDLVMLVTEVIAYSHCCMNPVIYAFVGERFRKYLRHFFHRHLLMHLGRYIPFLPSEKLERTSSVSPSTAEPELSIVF
Method: The CCR3 receptor internalization assay is FACS-based and uses human Eotaxin-1 (PreProTech, Rocky Hill, N.J.) and an anti-human CCR3 antibody labeled with APC (R&D Systems, Minneapolis, Minn.) or isotype control IgG2A antibody to monitor CCR3 receptor internalization in human eosinophils induced by human eotaxin-1 compared to naïve eosinophils. The median APC fluorescent intensity units for each sample were determined along with the mean of each set of sample triplicates.

GFAP-positive astroglia = assay: IHC of GFAP-positive astroglia in hippocampus of mice given daily LPS; format: in vivo, C57Bl/6 mice; conditions: 3-month-old mice, daily LPS IP 7 weeks, 30 mg/kg PO BID 4 weeks
Method: as §1, §2, §3

[1] = tested on: CD68+ activated microglia; assay: CD68+ activated microglia after one dose of LPS; format: in vivo, C57 mice; conditions: 3-month-old mice; one dose LPS 10 mg/kg IP; 30 mg/kg BID oral gavage 18 days
Source text: Mice were taken down on the day following the end of behavior testing. Anesthesia was induced by 2,2,2-tribromoethanol and mice were subsequently perfused with 0.9% saline trans-cardially. The brains were dissected and cut sagitally in two even halves. One half was snap frozen for later use in dry ice, and the other was fixed in 4% paraformaldehyde in PBS for use in immunohistochemistry. After two days of fixation, the hemibrains were transferred to a 30% sucrose in PBS solution and changed after two days. Hemibrains were sectioned at 30 um on a microtome at −22° C. Brain sections were stored in cryoprotectant media at −20° C. until needed for staining. Blocking was done on free floating sections in the appropriate serum at 10% serum in PBST 0.5%. Primary antibodies were incubated overnight at 4 C. For light microscopy, the following antibodies were used in the given concentrations: DCX, 1:200, Santa Cruz BioTech, CD68, 1:1000. AbD Serotec. Secondary biotinylated antibodies were applied the next day at a concentration of 1:300. Staining visualization was achieved by reaction with the ABC kit (Vector) and diaminobenzidine (Sigma). Dehydration of the mounted slides was achieved using ethanol and xylene dips. Images were acquired on a Leica light microscope at 5× magnification. […]

[2] = Compound cerebrospinal fluid levels in mice (mass spectroscopy); format: in vivo, C57BL/6 mice; conditions: for concentration at 4 weeks: C57BL/6, mouse, cerebrospinal fluid, subcutaneous, 16.5-month-old old group, read-out: level of Compound 1 in CSF
Method: Compound levels were measured by MS/MS by Quintara (Hayward, Calif.).
Cerebrospinal fluid (CSF) from both the 2-month-old “young” and 16.5-month-old “old” groups was collected and levels of Compound 1 were determined by mass spectroscopy. FIG. 6 depicts the levels of the compound of the invention that were detected in mouse CSF for both the young and old groups (both below 10 nM).

IL-1beta mRNA = assay: qPCR of IL-1beta mRNA in cortical brain tissue of mice given daily LPS; format: in vivo, C57Bl/6 mice; conditions: 3-month-old mice, daily LPS IP 7 weeks, 30 mg/kg PO BID 4 weeks
Source text: Snap-frozen hemibrains were dissected out into cortex, hippocampus, striatum, and thalamus. The cortex was split into three homogeneous parts and one part was used for RNA isolation. RNA was isolated using the Prolink RNA Mini Kit (Thermo Fisher Scientific #12183025). cDNA was made using Taqman RT Kit (Thermo Fisher Sci #N8080234). qPCR was run on a Quant Studio 6 using custom made Taqman Multiplex Primers for IL-1beta and GAPDH. All samples were run together on a single plate and analyzed for ddCT relative to their endogenous control first and then relative to the control group.
Three-month-old C57 mice were given daily doses of lipopolysaccharide (LPS) 0.5 mg/kg IP to induce inflammation and treated with Compound 1 for up to 4 weeks. […]

blood eosinophils = assay: Oxazolone-induced model of eosinophilia in hairless mice (CBC); format: in vivo; conditions: 3-month-old hairless mice, oxazolone every other day, 30 mg/kg PO BID 2 weeks
Method: 3-month-old hairless mice were treated with oxazolone (Ox) every other day and treated with control saline or 30 mg/kg Compound 1 for 2 weeks BID, PO.
Treatment Groups: • Treatment Group 1, Vehicle treatment: 3-month-old Hairless mice (n=3) received twice daily (BID) oral gavage (PO) treatment of vehicle solution for 2 weeks. • Treatment Group 2, Vehicle treatment and Oxazolone treatment: 3-month-old Hairless mice (n=6) received twice daily (BID) oral gavage (PO) treatment of vehicle solution for 2 weeks. • Treatment Group 3, Compound 1 treatment and Oxazolone treatment: 3-month-old Hairless mice (n=6) received twice daily (BID) oral gavage (PO) treatment of Compound 1, 30 mg/kg, for 2 weeks.

In the case of Cc1cc(C(=O)N(C)C)cc(NC(=O)[C@H]2CCC(=O)N2C2CCN(Cc3ccc(Cl)c(C)c3)CC2)n1 [Compound 1], the “Iba1+ immunoreactivity (total microglia) in hippocampus” value (Iba1-positive microglia) is reported as “dramatically decreased Iba1+ immunoreactivity; also recorded: trend towards decrease”, the IC50 (CCR3 receptor) is reported as under 100 nM and the “inhibition of CCR3 receptor internalization versus plasma Compound 1 concentration” value (CCR3 receptor; whole blood from humans treated with Compound 1, incubated with human recombinant eotaxin-1) is reported as “robust concentration-dependent effect”. The “GFAP+ immunoreactivity (total astrocytes) in hippocampus” value (GFAP-positive astroglia) was “dramatically decreased GFAP+ immunoreactivity; also recorded: trend towards decrease”, the “CD68+ immunoreactivity (activated microglia) in brain” value [1] was “significantly decreased CD68+ immunoreactivity” and the concentration at 4 weeks ([2]; 50 mg/mL solution infused at 0.5 μL/hour by Alzet mini-pump, mass spectroscopy) was under 10 nM. For the same molecule, the concentration at 4 weeks ([2]; mass spectroscopy) was under 10 nM, the “difference in BBB penetration between young and old mice” value ([2]; mouse, in vivo) was “no difference in BBB penetration between young and old mice” and the “crossing of the blood-brain barrier (CSF levels versus Ki)” value ([2]; young and old mice) was “do not cross the blood-brain barrier (BBB) in significant concentrations”. For the same molecule, the “level of Compound 1 in CSF” value ([2]; young group, mass spectroscopy) was “below 10 nM”, the “IL-1beta mRNA level in brain” value (IL-1beta mRNA) was “significant decrease in IL-1beta expression” and the “blood eosinophils (percentage of WBC count)” value (blood eosinophils) was “decreased the oxazolone-induced increase in blood eosinophils; also recorded: decreased an oxazolone-induced increase in blood eosinophils”.
